Data taken from paper doi:10.1101/2025.03.23.644840v2 (biorxiv, 2025).
Like-named read-outs stand apart in the source and are kept apart here.

What was measured:
Assay in all cases: isothermal titration calorimetry
[1] = target: ΔAnc4; parameters: species or system synthetic construct; conditions: 25 °C; 20 mM HEPES, 150 mM NaCl, 2% glycerol, pH 8; 1:1 model
[2] = target: Anc4; type: binding, synthetic construct; conditions: 25 °C; 20 mM HEPES, 150 mM NaCl, 2% glycerol, pH 8; 1:1 model
[3] = target: Anc1; type: binding, synthetic construct; conditions: 25 °C; 20 mM HEPES, 150 mM NaCl, 2% glycerol, pH 8; 1:1 model
[4] = target: Anc3; type: binding, synthetic construct; conditions: 25 °C; 20 mM HEPES, 150 mM NaCl, 2% glycerol, pH 8; 1:1 model
[5] = target: ecLacI (Escherichia coli, UniProt P03023); type: binding
[6] = target: Anc2; type: binding, synthetic construct; conditions: 25 °C; 20 mM HEPES, 150 mM NaCl, 2% glycerol, pH 8; 1:1 model
[7] = target: ΔAnc1; parameters: species or system synthetic construct; conditions: 25 °C; 20 mM HEPES, 150 mM NaCl, 2% glycerol, pH 8; 1:1 model

ecLacI, sequence (P03023 whole entry): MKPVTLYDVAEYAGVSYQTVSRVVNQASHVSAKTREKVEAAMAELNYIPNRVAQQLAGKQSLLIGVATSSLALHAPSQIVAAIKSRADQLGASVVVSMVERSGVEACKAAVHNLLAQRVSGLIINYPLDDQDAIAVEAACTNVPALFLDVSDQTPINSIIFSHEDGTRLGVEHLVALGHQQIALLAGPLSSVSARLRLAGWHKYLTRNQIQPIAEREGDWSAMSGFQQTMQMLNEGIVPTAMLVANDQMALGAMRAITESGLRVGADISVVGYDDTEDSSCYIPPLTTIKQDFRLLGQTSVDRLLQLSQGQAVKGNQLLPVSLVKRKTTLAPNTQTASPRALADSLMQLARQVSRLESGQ

Row | Kd [1] | Kd [2] | Kd [3] | Kd [4] | Kd [5] | Kd [6] | Kd [7] | Kd ([5]; 25 °C, 20 mM HEPES, 150 mM NaCl, 2% glycerol, pH 8, 1:1 model) | SMILES
1 | 430 µM | 550 µM | 4000 µM | 2500 µM | 306 µM | 2200 µM | – | – | CO[C@@H]1O[C@H](CO)[C@H](O)[C@H](O)[C@H]1O [BMDG]
2 | – | 15000 µM | 127 µM | – | – | – | 420 µM | 37000 µM | C[C@H]1OC(O)[C@H](O)[C@@H](O)[C@H]1O (stereo partly drawn) [D-fucose]
